Structures can show the parent of a compound that is named as a salt. Where two headings read alike, the source gives them in different places.
Columns and labels:
[1] = tested on: HSP90; conditions: ref library vendor description, cited from earlier work
[2] = tested on: Toxoplasma gondii RH-2F tachyzoites; assay: microbe, parasite or virus in culture; conditions: 72 h; for inhibition at 5 µM: read-out: Parasite inhibition (%) Mean ± SD
[3] = tested on: JAK2; parameters: method as in S-inhibitor catalog; conditions: vendor brief description; ref S-inhibitor catalog; cited from earlier work
[4] = in vitro; conditions: human; for viability at 72 h, 5 µM: Host viability (%) Mean ± SD
[5] = tested on: Toxoplasma gondii RH-2F tachyzoites; conditions: for effect on T. gondii growth in the screen: 5 μM, 72 h
[6] = tested on: PDK-1; parameters: method as in library vendor description; conditions: ref library vendor description, cited from earlier work
[7] = tested on: mTOR; parameters: method as in S-inhibitor catalog; conditions: vendor brief description; ref S-inhibitor catalog; cited from earlier work
[8] = tested on: PDGFRβ; parameters: method as in S-inhibitor; conditions: ref S-inhibitor; cited from earlier work
[9] = tested on: mTOR; parameters: method as in library vendor description; conditions: ref library vendor description; cited from earlier work
[10] = tested on: VEGFR3; parameters: method as in library vendor description; conditions: ref library vendor description; cited from earlier work
[11] = tested on: VEGFR2; parameters: method as in library vendor description; conditions: ref library vendor description; cited from earlier work
[12] = tested on: Flt4; parameters: method as in library vendor description; conditions: ref library vendor description; cited from earlier work
[13] = tested on: VEGFR-2; parameters: method as in vendor brief description; conditions: ref vendor brief description; cited from earlier work
[14] = tested on: HDAC; parameters: method as in S-inhibitor; conditions: ref S-inhibitor; cited from earlier work
[15] = tested on: chymotrypsin-like proteolytic (β5) site of the 20S proteasome; parameters: method as in S-inhibitor; conditions: ref S-inhibitor; cited from earlier work
[16] = tested on: c-Kit; parameters: method as in library vendor description; conditions: ref library vendor description; cited from earlier work
[17] = tested on: Ret; parameters: method as in library vendor description; conditions: ref library vendor description; cited from earlier work
[18] = tested on: VEGFR1; parameters: method as in library vendor description; conditions: ref library vendor description; cited from earlier work
[19] = tested on: Aurora B; parameters: method as in S-inhibitor catalog; conditions: vendor brief description; ref S-inhibitor catalog; cited from earlier work
[20] = tested on: human foreskin fibroblasts (HFFs); conditions: preliminary screen of compound library; mean
[21] = read-out: Parasite inhibition (%) mean, preliminary screen, mean
[22] = read-out: Parasite inhibition (%) mean, preliminary screen of compound library, mean
[23] = preliminary screen of compound library, mean

CO[C@H]1/C=C\C=C(\C)C(=O)NC2=CC(=O)C(NCCN(C)C)=C(C[C@@H](C)C[C@H](OC)[C@H](O)[C@@H](C)/C=C(\C)[C@@H]1OC(N)=O)C2=O [17-DMAG HCl (Alvespimycin)]
IC50 ([1]; read-out: IC50 HSP90): 62 nM | inhibition of growth at 5 µM [2, 21]: 4.3%

Cc1cc(Nc2nc(N[C@@H](C)c3ccc(F)cc3)c(C#N)cc2F)[nH]n1 [AZ 960]
IC50 [3]: < 3 nM | Ki [3]: 0.45 nM | inhibition of growth at 5 µM [2, 21]: -2.1%

COC(=O)N[C@H](C(=O)N[C@@H](Cc1ccccc1)[C@@H](O)CN(Cc1ccc(-c2ccccn2)cc1)NC(=O)[C@@H](NC(=O)OC)C(C)(C)C)C(C)(C)C [Atazanavir, reference compound]
viability at 72 h, 5 µM [4]: 90.7 ± 2.8% | inhibition at 5 µM [2]: 93.6 ± 2.1% | effect on T. gondii growth in the screen [5]: significantly inhibited T. gondii growth

COc1c(C)cnc(Cn2cnc3c(Cl)nc(N)nc32)c1C [BIIB021]
EC50 ([1]; read-out: EC50 HSP90): […] | Ki ([1]; read-out: Ki HSP90): […] | inhibition of growth at 5 µM [2, 21]: 3.5%

O=C(Nc1cccc(Nc2ncc(Br)c(NCCc3cnc[nH]3)n2)c1)N1CCCC1 [BX-912]
inhibition of growth at 5 µM [2, 21]: 1.4% | IC50 ([6]; read-out: IC50 PDK-1): 12 nM

CN1CCN(c2cccc(Nc3nc4c(-c5ccc(S(C)(=O)=O)cc5)cccn4n3)c2)CC1 [CEP33779]
IC50 [3]: 1.8 nM | inhibition of growth at 5 µM [2, 22]: 7.8%

CS(=O)(=O)N1CCc2c(-c3cnc(N)nc3)nc(N3CCOCC3)nc21 [CH5132799]
IC50 [7]: 1600 nM | inhibition of growth at 5 µM [2, 22]: 48.9%

COCCOc1ccc2c(c1)ncn2-c1ccc2cccc(N3CCC(N)CC3)c2n1 [CP 673451]
inhibition of growth at 5 µM [2, 21]: -13.8% | IC50 [8]: 1 nM

CO[C@H]1C[C@H]2CC[C@@H](C)[C@@](O)(O2)C(=O)C(=O)N2CCCC[C@H]2C(=O)O[C@H]([C@H](C)C[C@@H]2CC[C@H](OP(C)(C)=O)[C@H](OC)C2)CC(=O)[C@H](C)/C=C(\C)[C@@H](O)[C@@H](OC)C(=O)[C@H](C)C[C@H](C)/C=C/C=C/C=C/1C [Deforolimus (Ridaforolimus)]
inhibition of growth at 5 µM [2, 21]: 36.8% | IC50 [9]: 0.2 nM

CC(O)C(=O)O.CC(O)C(=O)O.CN1CCN(c2ccc3nc(-c4c(N)c5c(F)cccc5[nH]c4=O)[nH]c3c2)CC1 [Dovitinib Dilactic acid]
Parasite inhibition (%) mean [5, 23]: 18.2%

COc1cc2nccc(Oc3ccc(NC(=O)NC4CC4)c(Cl)c3)c2cc1C(N)=O [E7080 (Lenvatinib)]
viability at 72 h ([4]; Host viability (%) mean): 52.1% | IC50 [10]: 5.2 nM | inhibition of growth at 5 µM [2, 21]: 84.1% | IC50 [11]: 4 nM

Cc1cc(Nc2cc(N3CCN(C)CC3)nc(/C=C/c3ccccc3)n2)n[nH]1 [ENMD-2076]
viability at 72 h ([4]; Host viability (%) mean): 66.6% | inhibition of growth at 5 µM [2, 21]: 74.7% | IC50 [12]: 15.9 nM

Cc1c(CN2CCN(C(=O)[C@H](C)O)CC2)sc2c(N3CCOCC3)nc(-c3cnc(N)nc3)nc12 [GDC-0980 (RG7422)]
Ki [7]: 17 nM | inhibition of growth at 5 µM [2, 22]: 33.7%

CNC(=O)CN(CCN(CCN(CC(=O)[O-])CC(=O)NC)CC(=O)[O-])CC(=O)[O-].O.[Gd+3] [Gadodiamide (Omniscan)]
Parasite inhibition (%) mean [5, 23]: -0.2%

CN1CCN(C2CCN(C(=O)Nc3cc(Oc4ccc(NC(=O)C5(C(=O)Nc6ccc(F)cc6)CC5)c(F)c4)ccn3)CC2)CC1 [Golvatinib (E7050)]
viability at 72 h ([4]; Host viability (%) mean): 78.3% | IC50 [13]: 16 nM | inhibition of growth at 5 µM [2, 22]: 76.8%

Cl.N=C(N)N [Guanidine HCl]
Parasite inhibition (%) mean [5, 23]: -3.4%

CCN(CC)Cc1ccc2cc(COC(=O)Nc3ccc(C(=O)NO)cc3)ccc2c1 [ITF2357 (Givinostat)]
inhibition of growth at 5 µM [2, 21]: 62.2% | IC50 [14]: 7.5 to 16 nM

CC(C)Cc1ccc(C(C)C(=O)O)cc1.NCCCC[C@H](N)C(=O)O (centres unmarked) [Ibuprofen Lysine (NeoProfen)]
Parasite inhibition (%) mean ([5]; preliminary screen, mean): -1.6%

CC(C)C[C@H](NC(=O)CNC(=O)c1cc(Cl)ccc1Cl)B(O)O [MLN2238]
IC50 [15]: 3.4 nM | Ki [15]: 0.93 nM | inhibition of growth at 5 µM [2, 21]: 13.3%

NCC(=O)Nc1ccc(-n2nc(C(F)(F)F)cc2-c2ccc3c(ccc4ccccc43)c2)cc1 [OSU-03012 (AR-12)]
inhibition of growth at 5 µM [2, 21]: 5.4% | IC50 ([6]; recombinant PDK-1, read-out: IC50 recombinant PDK-1): 5000 nM

Cc1[nH]c(/C=C2\C(=O)Nc3ccc(S(=O)(=O)Cc4c(Cl)cccc4Cl)cc32)c(C)c1C(=O)N1CCC[C@@H]1CN1CCCC1 [PHA-665752, reference compound]
viability at 72 h, 5 µM [4]: 80.5 ± 1.3% | viability at 72 h ([4]; Host viability (%) mean): 80.5% | inhibition at 5 µM [2]: 92.3 ± 3.1% | effect on T. gondii growth in the screen [5]: significantly inhibited T. gondii growth

O=S(=O)(F)Cc1ccccc1 [PMSF (Phenylmethylsulfonyl Fluoride)]
Parasite inhibition (%) mean [5, 23]: 0.8%

Cl.NC(=O)c1cnc(N[C@@H]2CCCC[C@@H]2N)nc1Nc1cccc(-n2nccn2)c1 [PRT062607 HCl]
Parasite inhibition (%) mean [5, 23]: 17.8%

[I-].[K+] [Potassium iodide]
Parasite inhibition (%) mean [5, 23]: 10.2%

COc1cc(Nc2ncc(F)c(Nc3ccc4c(n3)N(COP(=O)(O)O)C(=O)C(C)(C)O4)n2)cc(OC)c1OC [R935788]
Parasite inhibition (%) mean ([5]; preliminary screen, mean): 28.5%

CNC(=O)c1cc(Oc2ccc(NC(=O)Nc3ccc(Cl)c(C(F)(F)F)c3)c(F)c2)ccn1 [Regorafenib (BAY 73-4506)]
viability at 72 h ([4]; Host viability (%) mean): 68.2% | inhibition of growth at 5 µM [2, 21]: 76.7% | IC50 [16]: 7 nM | IC50 [17]: 1.5 nM | IC50 [18]: […]

N[C@@H]1CN(c2c(F)cc3c(=O)c(C(=O)O)cn([C@@H]4C[C@@H]4F)c3c2Cl)CC12CC2.O [Sitafloxacin hydrate]
Parasite inhibition (%) mean [5, 23]: 53.1%

CCS(=O)(=O)c1cccc(-c2cc(C(=O)NC3CCN(C)CC3)c(C)c3[nH]c4ncc(C)cc4c23)c1 [TAK-901]
viability at 72 h ([4]; Host viability (%) mean): 52.7% | IC50 [19]: 15 nM | inhibition of growth at 5 µM [2, 22]: 77.8%

CO[C@H]1C[C@H]2CC[C@@H](C)[C@@](O)(O2)C(=O)C(=O)N2CCCC[C@H]2C(=O)O[C@H]([C@H](C)C[C@@H]2CC[C@H](OC(=O)C(C)(CO)CO)[C@H](OC)C2)CC(=O)[C@H](C)/C=C(\C)[C@@H](O)[C@@H](OC)C(=O)[C@H](C)C[C@H](C)/C=C/C=C/C=C/1C [Temsirolimus (Torisel)]
inhibition of growth at 5 µM [2, 21]: 22.4% | IC50 [9]: 1760 nM

N#CC(=C(/N)Sc1ccccc1N)/C(C#N)=C(/N)Sc1ccccc1N [U0126, reference compound]
effect on T. gondii growth in the screen [5]: no effect on T. gondii growth

CN[C@H](CC(C)C)C(=O)N[C@H]1C(=O)N[C@@H](CC(N)=O)C(=O)N[C@H]2C(=O)N[C@H]3C(=O)N[C@@H](C(=O)N[C@H](C(=O)O)c4cc(O)cc(O)c4-c4cc3ccc4O)[C@H](O)c3ccc(c(Cl)c3)Oc3cc2cc(c3O[C@H]2O[C@H](CO)[C@@H](O)[C@H](O)[C@H]2O[C@H]2C[C@@](C)(N)[C@H](O)[C@H](C)O2)Oc2ccc(cc2Cl)[C@H]1O.Cl [Vancomycin HCl (Vancocin)]
Parasite inhibition (%) mean [5]: 0.8%

COc1cc2c(Nc3ccc(Br)cc3F)ncnc2cc1OCC1CCN(C)CC1 [Vandetanib (Zactima)]
viability at 72 h [4]: 79.5% | inhibition of growth at 5 µM [2, 21]: 80.2%

c1cncc(CN2CCC(n3ncc4c(N5CCOCC5)nc(-c5ccc6[nH]ccc6c5)nc43)CC2)c1 [WAY-600]
IC50 [7]: 9 nM | inhibition of growth at 5 µM [2, 22]: 35.5%

COC(=O)Nc1ccc(-c2nc(N3CCOCC3)c3cnn(C4CCN(C(=O)OC)CC4)c3n2)cc1 [WYE-354]
inhibition of growth at 5 µM [2, 21]: 43.5% | IC50 [9]: 5 nM

COC(=O)Nc1ccc(-c2nc(N3CCOCC3)c3cnn(C4CCN(Cc5cccnc5)CC4)c3n2)cc1 [WYE-687]
IC50 [7]: 7 nM | inhibition of growth at 5 µM [2, 22]: 28.7%

CNC(=O)Nc1ccc(-c2nc(N3CC4CCC(C3)O4)c3cnn(C4CCC5(CC4)OCCO5)c3n2)cc1 [WYE-125132]
IC50 [7]: 0.19 nM | inhibition of growth at 5 µM [2, 22]: 44.4%

Cc1cc(F)c(Nc2ncnc3cc(OCc4ccccc4)ccc23)cc1O [ZM 323881 HCl, reference compound]
viability at 72 h, 5 µM [4]: 85.5 ± 5.4% | viability at 72 h ([4]; Host viability (%) mean): 85.5% | IC50 [13]: < 2 nM | inhibition at 5 µM [2]: 79.9 ± 1.4%

COc1cc2c(Nc3ccc(NC(=O)c4ccccc4)cc3)ncnc2cc1OCCCN1CCOCC1 [ZM-447439]
viability at 72 h ([4]; Host viability (%) mean): 31.2% | inhibition of growth at 5 µM [2, 21]: 70.2%

Cc1cc(C)c(/C=C2\C(=O)Nc3ccccc32)[nH]1 [semaxanib, reference compound]
effect on T. gondii growth in the screen [5]: no effect on T. gondii growth

AT101
Host viability (%) mean [20]: 68.8% | Parasite inhibition (%) mean [5]: 70.4%

Biapenem
Parasite inhibition (%) mean [5, 23]: 5.8%

MLN9708
IC50 [15]: 3.4 nM | Ki [15]: 0.93 nM | Parasite inhibition (%) mean ([5]; preliminary screen, mean): 17.5%

Ulipristal
Parasite inhibition (%) mean [5, 23]: -0.7%

Reference: PMC7216583 (Parasites & Vectors, 2020)
